Measured values taken from ChEMBL document CHEMBL1828583, “Discovery process and pharmacological characterization of a novel dual orexin 1 and orexin 2 receptor antagonist useful for treatment of sleep disorders” (Bioorg Med Chem Lett, 2011).

Assays:
Orexin receptor type 2 = molecular target: T1, Orexin receptor type 2 (Homo sapiens, UniProt O43614); assay: Antagonist activity at recombinant human OX2R expressed in CHO cells by FLIPR calcium based functional assay; format: cell-based
T1 sequence (O43614 whole entry): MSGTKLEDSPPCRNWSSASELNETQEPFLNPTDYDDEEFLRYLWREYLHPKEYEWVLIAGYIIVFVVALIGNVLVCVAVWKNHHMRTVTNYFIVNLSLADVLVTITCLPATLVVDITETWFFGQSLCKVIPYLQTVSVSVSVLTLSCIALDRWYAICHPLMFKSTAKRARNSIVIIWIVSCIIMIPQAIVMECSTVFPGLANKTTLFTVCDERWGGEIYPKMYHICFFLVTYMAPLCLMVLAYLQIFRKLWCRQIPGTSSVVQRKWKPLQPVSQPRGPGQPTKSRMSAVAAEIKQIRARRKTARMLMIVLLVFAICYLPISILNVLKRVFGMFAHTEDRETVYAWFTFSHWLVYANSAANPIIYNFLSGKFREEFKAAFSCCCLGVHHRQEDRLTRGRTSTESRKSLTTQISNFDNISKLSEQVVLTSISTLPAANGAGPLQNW

[1] = molecular target: T2, Orexin/Hypocretin receptor type 1 (Homo sapiens, UniProt O43613); assay: Antagonist activity at recombinant human OX1R expressed in CHO cells by FLIPR calcium based functional assay; format: cell-based
T2 sequence (O43613 whole entry): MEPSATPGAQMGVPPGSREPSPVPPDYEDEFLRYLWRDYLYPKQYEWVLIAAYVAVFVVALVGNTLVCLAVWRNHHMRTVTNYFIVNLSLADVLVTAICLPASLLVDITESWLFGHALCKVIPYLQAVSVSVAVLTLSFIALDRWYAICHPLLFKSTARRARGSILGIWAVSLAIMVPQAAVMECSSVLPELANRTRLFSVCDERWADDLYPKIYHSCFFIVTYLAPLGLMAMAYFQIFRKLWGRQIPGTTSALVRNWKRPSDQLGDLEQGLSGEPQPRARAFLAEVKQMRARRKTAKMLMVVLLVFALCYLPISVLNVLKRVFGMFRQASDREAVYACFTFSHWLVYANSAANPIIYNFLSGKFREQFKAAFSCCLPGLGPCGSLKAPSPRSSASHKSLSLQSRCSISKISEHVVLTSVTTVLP

Liver microsomes = assay: Intrinsic clearance in human liver microsomes; format: ADME, Microsome

SMILES	Ki (Orexin receptor type 2) [nM]	Ki [1] [nM]	CL (Liver microsomes) [mL/min/g]
COc1cccc(C(=O)N2CCCCC2CCOc2ccc(Cl)c(Cl)c2)c1 (racemic)	501	126	
O=C(NC[C@@H]1CCCCN1C(=O)c1ccccc1-c1ccccc1)c1ccc(F)cc1	0.251	0.126	23
O=C(c1ccc(Cl)c(Cl)c1)N1CCCCC1CCOc1ccc(Cl)c(Cl)c1 (racemic)	> 3160	2510	
O=C(CC[C@@H]1CCCCN1C(=O)c1ccccc1-c1ccccc1)c1ccccc1	20	10	
O=C(c1ccccc1-c1ccccc1)N1CCCCC1CCOc1ccc(F)cc1 (racemic)	20	5.01	> 50
CN(C[C@@H]1CCCCN1C(=O)c1ccccc1-c1ccccc1)C(=O)c1ccc(F)cc1	1260	501	
O=C(NC[C@H]1CCCCN1C(=O)c1ccccc1-c1ccccc1)c1ccc(F)cc1	31.6	39.8	
